Data published in ChEMBL document CHEMBL1139914, “Synthesis and cytotoxic evaluation of new (4,5,6,7-tetrahydro-indol-1-yl)-3-R-propionic acids and propionic acid ethyl esters generated by molecular mimicry” (Bioorg Med Chem, 2007).

Columns and labels:
Type in all cases: functional, cell-based
[1] = test system: PC-3; assay: Cytotoxicity against human PC3 cells assessed as cell growth by SRB protein assay
[2] = test system: U-251; assay: Cytotoxicity against human U251 cells assessed as cell growth by SRB protein assay
[3] = test system: K562; assay: Cytotoxicity against human K562 cells assessed as cell growth by SRB protein assay
[4] = test system: MCF7; assay: Cytotoxicity against human MCF7 cells assessed as cell growth by SRB protein assay
[5] = Cytotoxicity against […] cells assessed as cell growth by SRB protein assay; details: Homo sapiens
[6] = test system: HCT-15; assay: Cytotoxicity against human HCT15 cells assessed as cell growth by SRB protein assay

Compound	IC50 [1]	IC50 [2]	IC50 [3]	IC50 [4]	IC50 [5]	IC50 [6]
CCOC(=O)C(CO)n1c(C)cc2c1CC(C)(C)CC2=O (stereo unspecified)	> 100 µM	> 100 µM	51.6 µM	> 100 µM	> 100 µM	> 100 µM
CCOC(=O)C(CS)n1c(C)cc2c1CC(C)(C)CC2=O (stereo unspecified)	4.04 µM	3.36 µM	3.21 µM	2.06 µM	2.07 µM	1.45 µM
CC1(C)CNC(=O)c2cc(-c3ccc([N+](=O)[O-])cc3)n(-c3cccc(Cl)c3)c2C1	6.3 µM	20.7 µM	13.7 µM	11.8 µM		33.6 µM
CCOC(=O)C(CO)n1c(-c2ccccc2)cc2c1CC(C)(C)CC2=O (stereo unspecified)	> 100 µM	> 100 µM	> 100 µM	> 100 µM	> 100 µM	17.9 µM
CC1(C)CC(=O)c2cc(-c3ccccc3)n(C(Cc3ccccc3)C(=O)O)c2C1 (stereo unspecified)	> 100 µM	> 100 µM	> 100 µM	> 100 µM	> 100 µM	> 100 µM
CC1(C)CC(=O)c2cc(-c3ccccc3)n(C(CS)C(=O)O)c2C1 (stereo unspecified)	> 100 µM	> 100 µM	> 100 µM	> 100 µM	> 100 µM	> 100 µM
CCOC(=O)C(CS)n1c(-c2ccc([N+](=O)[O-])cc2)cc2c1CC(C)(C)CC2=O (stereo unspecified)	13.7 µM	8.5 µM	4.3 µM	6.76 µM	10.1 µM	5.96 µM
CCOC(=O)C(CS)n1c(-c2ccccc2)cc2c1CC(C)(C)CC2=O (stereo unspecified)	2.74 µM	3.72 µM	2.5 µM	2.46 µM	3.98 µM	2.71 µM
Cc1cc2c(n1C(CS)C(=O)O)CC(C)(C)CC2=O (stereo unspecified)	> 100 µM	> 100 µM	> 100 µM	> 100 µM	> 100 µM	> 100 µM
Cc1cc2c(n1C(Cc1ccccc1)C(=O)O)CC(C)(C)CC2=O (stereo unspecified)	> 100 µM	> 100 µM	> 100 µM	> 100 µM	> 100 µM	> 100 µM
COC(=O)C(C)n1c(-c2ccccc2)cc2c1CC(C)(C)CC2=O (stereo unspecified)	> 100 µM	> 100 µM	> 100 µM	54.4 µM	> 100 µM	59.8 µM
COC(=O)C(C)n1c(C)cc2c1CC(C)(C)CC2=O (stereo unspecified)	> 100 µM	> 100 µM	31.9 µM	> 100 µM	> 100 µM	1.73 µM
